{"source": "patent US7365200B2", "about": "“Thienopyridinone derivatives as macrophage migration inhibitory factor inhibitors” (Avanir Pharmaceuticals, priority 2005, dated 2008)", "key": {"[1]": {"biological_target": "T1, MIF produced by THP-1 cells (Homo sapiens, UniProt P14174)", "T1 construct": "THP-1 cell supernatant was collected and incubated with a candidate compound; endogenous in cells; host or cells: THP-1 cells, LPS-stimulated, culture supernatant", "T1 sequence (P14174 2-115 limits assumed)": "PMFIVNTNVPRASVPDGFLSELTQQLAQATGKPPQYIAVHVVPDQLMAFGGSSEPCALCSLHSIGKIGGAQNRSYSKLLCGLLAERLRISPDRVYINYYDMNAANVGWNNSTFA", "assay": "Antibody binding assay of MIF inhibitors (ELISA, 96-well format)", "settings": "LPS-stimulated THP-1 cell supernatant incubated with compound; MIF monoclonal antibody capture ELISA; read-out: In vitro MIF IC50", "description": "An antibody binding assay for MIF inhibitors was performed on selected compounds in a 96-well format using MIF produced by THP-1 cells. The THP-1 cells were washed once with 250 μl of 0.1 M sodium carbonate, pH 11.4, for 1 to 2 minutes and immediately aspirated. The THP-1 cells were then washed with media containing 0.5% FBS plus 25 μg/ml heparin and then incubated in this same medium for the indicated lengths of time. The THP-1 cells were resuspended to approx. 5×10^6 cells/ml in RPMI medium containing 20 μg/ml of bacterial LPS and incubated for 18-20 hours, after which THP-1 cell supernatant was collected and incubated with a candidate compound. A 96-well ELISA plate (Costar Number 3590) was coated with a MIF monoclonal antibody (R&D Systems Catalog Number MAB289) at a concentration of 4 μg/ml for two hours at 37° C. Undiluted THP-1 cell culture supernatant incubated with the candidate compound was added to the ELISA plate for a two-hour incubation at room temperature. The wells were then washed, a biotinylated MIF polyclonal antibody (R&D Systems #AF-289-PB) was added followed by Streptavidin-HRP and a chromogenic substrate. The amount of MIF was calculated by interpolation from an MIF standard curve."}}}
{"molecule": "Cc1csc2c1c(N1CCN(C(=O)c3cccs3)CC1)c(C#N)c(=O)n2Cc1ccccc1", "note": "[Compound 117]", "values": [{"measurement": "IC50", "setting": "[1]", "value": 12300, "unit": "nM"}]}
{"molecule": "N#Cc1c(N2CCN(C(=O)c3cccs3)CC2)c2sccc2n(CC(=O)c2ccccc2)c1=O", "note": "[Compound 30, 5-oxo-4-(2-oxo-2-phenyl-ethyl)-7-[4-(thiophene-2-carbonyl)-piperazin-1-yl]-4,5-dihydro-thieno[3,2-b]pyridine-6-carbonitrile]", "values": [{"measurement": "melting point", "value": 300, "unit": "°C"}]}
{"molecule": "N#Cc1c(N2CCN(C(=O)c3cccs3)CC2)c2cscc2n(CC(=O)c2ccccc2)c1=O", "note": "[Compound 48, 5-oxo-4-(2-oxo-2-phenyl-ethyl)-7-[4-(thiophene-2-carbonyl)-piperazin-1-yl]-4,5-dihydro-2-thia-4-aza-indene-6-carbonitrile]", "values": [{"measurement": "melting point", "value": 308, "unit": "°C"}]}
{"molecule": "N#Cc1c(N2CCN(C(=O)c3cccs3)CC2)c2cscc2n(Cc2ccc(F)cc2)c1=O", "note": "[Compound 49, 4-(4-fluoro-benzyl)-5-oxo-7-[4-(thiophene-2-carbonyl)-piperazin-1-yl]-4,5-dihydro-2-thia-4-aza-indene-6-carbonitrile]", "values": [{"measurement": "melting point", "value": 238, "unit": "°C"}]}
{"molecule": "CCOC(=O)c1c(N2CCN(C(=O)c3cccs3)CC2)c2sccc2n(CC(=O)c2ccccc2)c1=O", "note": "[Compound 120]", "values": [{"measurement": "IC50", "setting": "[1]", "value": 799, "unit": "nM"}]}
{"molecule": "N#Cc1c(N2CCN(C(=O)c3cccs3)CC2)c2sccc2n(Cc2cccnc2)c1=O", "note": "[Compound 111]", "values": [{"measurement": "IC50", "setting": "[1]", "value": 254, "unit": "nM"}]}
{"molecule": "CCOC(=O)c1c(N2CCN(C(=O)c3cccs3)CC2)c2cscc2n(Cc2ccc(F)cc2)c1=O", "note": "[Compound 42, 4-(4-fluoro-benzyl)-5-oxo-7-[4-(thiophene-2-carbonyl)-piperazin-1-yl]-4,5-dihydro-2-thia-4-aza-indene-6-carboxylic acid ethyl ester]", "values": [{"measurement": "melting point", "value": 227, "unit": "°C"}]}
{"molecule": "N#Cc1c(N2CCN(C(=O)c3cccs3)CC2)c2sccc2n(Cc2cccc(F)c2)c1=O", "note": "[Compound 112]", "values": [{"measurement": "IC50", "setting": "[1]", "value": 595, "unit": "nM"}]}
{"molecule": "CCOC(=O)c1c(N2CCN(C(=O)c3cccs3)CC2)c2cscc2n(Cc2ccc(F)cc2)c1=O", "note": "[Compound 106]", "values": [{"measurement": "IC50", "setting": "[1]", "value": 40, "unit": "nM"}]}
{"molecule": "CCOC(=O)c1c(N2CCN(C(=O)c3ccco3)CC2)c2sccc2n(Cc2ccc(F)cc2)c1=O", "note": "[Compound 119]", "values": [{"measurement": "IC50", "setting": "[1]", "value": 4150, "unit": "nM"}]}
{"molecule": "N#Cc1c(N2CCN(C(=O)c3cccs3)CC2)c2sccc2n(Cc2ccc(F)cc2)c1=O", "note": "[Compound 113]", "values": [{"measurement": "IC50", "setting": "[1]", "value": 419, "unit": "nM"}]}
{"molecule": "CCOC(=O)c1c(N2CCN(C(=O)c3cccs3)CC2)c2cc(C)sc2n(Cc2cccc(F)c2)c1=O", "note": "[Compound 127]", "values": [{"measurement": "IC50", "setting": "[1]", "value": 32, "unit": "nM"}]}
{"molecule": "CCOC(=O)c1c(N2CCN(C(=O)c3cccs3)CC2)c2sccc2n(CC(=O)c2ccccc2)c1=O", "note": "[Compound 7, 5-oxo-4-(2-oxo-2-phenyl-ethyl)-7-[4-(thiophene-2-carbonyl)-piperazin-1-yl]4,5-dihydro-thieno[3,2-b]pyridine-6-carboxylic acid ethyl ester]", "values": [{"measurement": "melting point", "value": 240, "unit": "°C"}]}
{"molecule": "CCOC(=O)c1c(N2CCN(C(=O)c3cccs3)CC2)c2cscc2n(Cc2ccc(C(=O)OC)cc2)c1=O", "note": "[Compound 107]", "values": [{"measurement": "IC50", "setting": "[1]", "value": 35, "unit": "nM"}]}
{"molecule": "N#Cc1c(N2CCN(C(=O)c3cccs3)CC2)c2sccc2n(CC(=O)c2ccccc2)c1=O", "note": "[Compound 110]", "values": [{"measurement": "IC50", "setting": "[1]", "value": 1730, "unit": "nM"}]}
{"molecule": "CCOC(=O)c1c(N2CCN(C(=O)c3ccco3)CC2)c2sccc2n(Cc2cccc(F)c2)c1=O", "note": "[Compound 122]", "values": [{"measurement": "IC50", "setting": "[1]", "value": 5840, "unit": "nM"}]}
{"molecule": "CCOC(=O)c1c(N2CCN(C(=O)c3cccs3)CC2)c2ccsc2n(Cc2ccccc2)c1=O", "note": "[Compound 114]", "values": [{"measurement": "IC50", "setting": "[1]", "value": 70, "unit": "nM"}]}
{"molecule": "CCOC(=O)c1c(N2CCN(C(=O)c3cccs3)CC2)c2cscc2n(CC(=O)c2ccccc2)c1=O", "note": "[Compound 105]", "values": [{"measurement": "IC50", "setting": "[1]", "value": 53, "unit": "nM"}]}
{"molecule": "N#Cc1c(N2CCN(C(=O)c3cccs3)CC2)c2ccsc2n(Cc2ccccc2)c1=O", "note": "[Compound 116]", "values": [{"measurement": "IC50", "setting": "[1]", "value": 139, "unit": "nM"}]}
{"molecule": "CCOC(=O)c1c(N2CCN(C(=O)c3cccs3)CC2)c2sccc2n(Cc2cccc(F)c2)c1=O", "note": "[Compound 121]", "values": [{"measurement": "IC50", "setting": "[1]", "value": 146, "unit": "nM"}]}
{"molecule": "N#Cc1c(N2CCN(C(=O)c3cccs3)CC2)c2cscc2n(CC(=O)c2ccccc2)c1=O", "note": "[Compound 101]", "values": [{"measurement": "IC50", "setting": "[1]", "value": 70, "unit": "nM"}]}
{"molecule": "CCOC(=O)c1c(N2CCN(C(=O)c3cccs3)CC2)c2sccc2n(Cc2cccnc2)c1=O", "note": "[Compound 124]", "values": [{"measurement": "IC50", "setting": "[1]", "value": 269, "unit": "nM"}]}
{"molecule": "COC(=O)c1ccc(Cn2c(=O)c(C#N)c(N3CCN(C(=O)c4cccs4)CC3)c3cscc32)cc1", "note": "[Compound 50, 4-{6-cyano-5-oxo-7-[4-(thiophene-2-carbonyl)-piperazin-1-yl]-5H-2-thia-4-aza-indene-4-ylmethyl}-benzoic acid methyl ester]", "values": [{"measurement": "melting point", "value": 263, "unit": "°C"}]}
{"molecule": "N#Cc1c(N2CCN(C(=O)c3cccs3)CC2)c2cscc2n(-c2cccnc2)c1=O", "note": "[Compound 52, 5-oxo-4-pyridine-3-yl-7-[4-(thiophene-2-carbonyl)-piperazin-1-yl]-4,5-dihydro-2-thia-4-aza-indene-6-carbonitrile]", "values": [{"measurement": "melting point", "value": 282, "unit": "°C"}]}
{"molecule": "CCOC(=O)c1c(N2CCN(C(=O)c3cccs3)CC2)c2sccc2n(Cc2cccc(F)c2)c1=O", "note": "[Compound 9, 4-(3-fluoro-benzyl)-5-oxo-7-[4-(thiophene-2-carbonyl)-piperazin-1-yl]-4,5-dihydro-thieno[3,2-b]pyridine-6-carboxylic acid ethyl ester]", "values": [{"measurement": "melting point", "value": "95 to 113", "unit": "°C"}]}
{"molecule": "N#Cc1c(N2CCN(C(=O)c3cccs3)CC2)c2cscc2n(Cc2cccnc2)c1=O", "note": "[Compound 104]", "values": [{"measurement": "IC50", "setting": "[1]", "value": 59, "unit": "nM"}]}
{"molecule": "Cc1csc2c1c(N1CCN(C(=O)c3cccs3)CC1)c(C#N)c(=O)n2Cc1ccccc1", "note": "[Compound 67, 7-benzyl-3-methyl-6-oxo-4-[4-(thiophene-2-carbonyl)-piperazin-1-yl]-6,7-dihydro-thieno[2,3-b]pyridine-5-carbonitrile]", "values": [{"measurement": "melting point", "value": 223, "unit": "°C"}]}
{"molecule": "CCOC(=O)c1c(N2CCN(C(=O)c3cccs3)CC2)c2c(C)csc2n(Cc2ccccc2)c1=O", "note": "[Compound 115]", "values": [{"measurement": "IC50", "setting": "[1]", "value": 11800, "unit": "nM"}]}
{"molecule": "CCOC(=O)c1c(N2CCN(C(=O)c3ccc(F)s3)CC2)c2sccc2n(Cc2cccc(F)c2)c1=O", "note": "[Compound 126]", "values": [{"measurement": "IC50", "setting": "[1]", "value": 648, "unit": "nM"}]}
{"molecule": "N#Cc1c(N2CCN(C(=O)c3cccs3)CC2)c2cscc2n(-c2cccnc2)c1=O", "note": "[Compound 108]", "values": [{"measurement": "IC50", "setting": "[1]", "value": 171, "unit": "nM"}]}
{"molecule": "N#Cc1c(N2CCN(C(=O)c3cccs3)CC2)c2sccc2n(Cc2ccc(F)cc2)c1=O", "note": "[Compound 28, 4-(4-fluoro-benzyl)-5-oxo-7-[4-(thiophene-2-carbonyl)-piperazin-1-yl]-4,5-dihydro-thieno[3,2-b]pyridine-6-carbonitrile]", "values": [{"measurement": "melting point", "value": 286, "unit": "°C"}]}
{"molecule": "CCOC(=O)c1c(N2CCN(C(=O)c3ccco3)CC2)c2sccc2n(CC(=O)c2ccccc2)c1=O", "note": "[Compound 13, 7-[4-(furan-2-carbonyl)-piperazin-1-yl]-5-oxo-4-(2-oxo-2-phenyl-ethyl)-4,5-dihydro-thieno[3,2-b]pyridine-6-carboxylic acid ethyl ester]", "values": [{"measurement": "melting point", "value": 246, "unit": "°C"}]}
{"molecule": "CCOC(=O)c1c(N2CCN(C(=O)c3cccs3)CC2)c2sccc2n(Cc2ccc(F)cc2)c1=O", "note": "[Compound 109]", "values": [{"measurement": "IC50", "setting": "[1]", "value": 233, "unit": "nM"}]}
{"molecule": "CCOC(=O)c1c(N2CCN(C(=O)c3ccco3)CC2)c2sccc2n(CC(=O)c2ccccc2)c1=O", "note": "[Compound 123]", "values": [{"measurement": "IC50", "setting": "[1]", "value": 8770, "unit": "nM"}]}
{"molecule": "COC(=O)c1ccc(Cn2c(=O)c(C#N)c(N3CCN(C(=O)c4cccs4)CC3)c3cscc32)cc1", "note": "[Compound 103]", "values": [{"measurement": "IC50", "setting": "[1]", "value": 437, "unit": "nM"}]}
{"molecule": "N#Cc1c(N2CCN(C(=O)c3cccs3)CC2)c2cscc2n(Cc2ccc(F)cc2)c1=O", "note": "[Compound 102]", "values": [{"measurement": "IC50", "setting": "[1]", "value": 82, "unit": "nM"}]}
{"molecule": "CC(C)OC(=O)c1c(N2CCN(C(=O)c3cccs3)CC2)c2sccc2n(Cc2cccc(F)c2)c1=O", "note": "[Compound 125]", "values": [{"measurement": "IC50", "setting": "[1]", "value": 387, "unit": "nM"}]}
